Experimental findings from PubChem BioAssay AID179 (DTP/NCI, 2004) are described below.

Molecules are shown by their SMILES. Calls of active or inactive are those of the source.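 How the source made its calls: active means compounds giving half or more protection of infected cells from virus-caused growth loss, again on retest; inactive means the rest.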

The test concerns CEM cells HIV-1 protection, formazan growth assay. The experiment in a line: NCI AIDS Antiviral Assay. The following applies: for IC50: measured here: growth of uninfected CEM cells. In outline:
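Steps: treat uninfected and HIV-1-infected human CEM cells at five drug levels; quantify growth by soluble formazan; retest any compound reaching 50% protection; classify actives from the retest.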

`NC(=S)/N=C/C1=C(O)CCCC1=O`: the EC50 was above 200 µM and the IC50 was above 200 µM. Regarding `COc1cc(C(C)O)c[n+](CCC2CNc3ccccc32)c1` (configuration not stated), the EC50 is above 219 µM and the IC50 came out at 195 µM.

With `O=C1c2ccccc2-c2nnc(-c3ccc([N+](=O)[O-])cc3)cc21`, the EC50 is above 100 µM and the IC50 is above 100 µM.

For `CN1C(=O)c2ccccc2Cc2c(NCc3ccccc3)ncnc21`, the EC50 was above 89.1 µM and the IC50 worked out at 19.1 µM. Consider `Cc1nc(N2N=C(c3ccc(Cl)cc3)CCC2=O)sc1[N+](=O)[O-]`, for which the EC50 was above 74.1 µM and the IC50 stood at 32.4 µM. Turning to `COC(=O)c1ccccc1C#CC#Cc1ccccc1C(=O)OC`, the EC50 was above 200 µM and the IC50 is 24 µM. For `CCCCCC/C=[N+](/[O-])CC1OC(n2ccc(=O)[nH]c2=O)C(O[Si](C)(C)C(C)(C)C)C1O[Si](C)(C)C(C)(C)C` (configuration not stated) the same measures were above 200 µM and 6.76 µM. In the case of `COc1ccc(N2C(=O)/C(=C\c3cc(OC)c(OC)c(OC)c3)SC2c2ccccc2)cc1` (configuration not stated), the EC50 was above 200 µM and the IC50 came to 51.3 µM. In the case of `Cc1cc(O)c(C(C)C)cc1C1(c2cc(C(C)C)c(O)cc2C)OS(=O)(=O)c2ccccc21`, the outcome was inactive.

For `Cn1c2ccccc2c2c(-c3ccccc3)cc3c(c21)C(=O)C=CC3=O`, the EC50 is above 100 µM and the IC50 amounted to 5.5 µM. For `O=C1CC(c2ccc(O)c(O)c2)c2cc(O)c3c(c2O1)C[C@@H](O)[C@@H](c1ccc(O)c(O)c1)O3` (some centres not stated) the same measures were above 200 µM and 15.8 µM. `C[C@@]1(Cc2ccccc2)C(=O)N2[C@@H](CO)C(c3ccccc3)O[C@]2(C)c2ccccc21` (some centres not stated): the EC50 was above 33.1 µM and the IC50 is above 33.1 µM. For `Cc1cc(NCCCCCCNc2cc(C)nc3ccc(Cl)cc23)c2cc(Cl)ccc2n1`, the EC50 is above 6.92 µM and the IC50 was above 6.92 µM. Turning to `CCNCCCCNCCCCNCCCCNCCCCNCC`, the EC50 was above 2190 µM and the IC50 was 12.3 µM.

As for `O=C(O)Cc1cc(=O)[nH]c2c1/C(=N/O)CCC2`, the outcome was inactive. For `CCOC(=O)c1ccc(CSc2ccccc2)c([N+](=O)[O-])c1`, the EC50 is above 58.9 µM and the IC50 was above 58.9 µM.

With `COC=C=CC(C)(C)OC`, the EC50 was above 550 µM and the IC50 was above 550 µM. Regarding `O=C1c2ccccc2C(=O)c2cscc21`, the EC50 is above 77.6 µM and the IC50 stood at 18.6 µM.

Regarding `COC(=O)/C=C\C(C#N)(C#N)N=Cc1ccc(Br)cc1`, the EC50 is above 20 µM and the IC50 worked out at 1.02 µM. For `Cc1cc(O)ccc1N=O` the same measures were above 200 µM and 3.39 µM. Regarding `O=C(CCCN1CCC(O)(c2ccc(Cl)cc2)CC1)c1ccc(F)cc1`, the EC50 is above 132 µM. Consider `COc1cc2oc3cc(OC)c(OC)c(CC=C(C)C)c3c(=O)c2c(O)c1CC=C(C)C`, for which the EC50 was above 30.9 µM and the IC50 is above 30.9 µM.

Regarding `CN(C)CCCNC(=O)c1cc(NC(=O)c2cc(NC(=O)c3cc(NC(=O)c4cccc(C(=O)Nc5cc(C(=O)Nc6cc(C(=O)Nc7cc(C(=O)NCCCN(C)C)n(C)c7)n(C)c6)n(C)c5)n4)cn3C)cn2C)cn1C`, the EC50 was above 100 µM and the IC50 was above 100 µM. As to `COC1=CC(=O)C2C(C1=O)[C@@H]1c3ccccc3C[C@H]21` (some centres not stated), the EC50 is above 195 µM and the IC50 is above 100 µM. For `COC(=O)CC1C(C(C)(OC)OC)C(=O)N1[Si](C)(C)C(C)(C)C` (configuration not stated), the EC50 was above 363 µM and the IC50 was above 363 µM. In the case of `NC(CSC[C@H](N)C(=O)O)C(=O)O` (some centres not stated), the outcome was inactive. For `COc1ccc(N2C(=O)C3c4[nH]c5ccccc5c4C4CCCCCCC4C3C2=O)cc1` (configuration not stated), the EC50 is above 8.71 µM and the IC50 was above 8.71 µM. On to `N#Cc1ccccc1NC(=O)C(=O)C1NC(=S)NC1=O` (configuration not stated), for which the result was inactive.

Consider `CCCCOC(=O)C(=O)C(CC(C(=O)Cc1ccccc1)c1ccccc1)C(=O)C=C(C)C` (configuration not stated), for which the EC50 is above 112 µM and the IC50 is above 112 µM. Regarding `CC(C)=CCCC(C)C1=C(O)C(=O)C(C)=CC1=O` (configuration not stated), the EC50 is above 2 µM and the IC50 was determined as 0.589 µM.

As for `Cc1cc(C[C@H]2O[C@@H]3OC(C)(C)O[C@@H]3[C@H]3OC(C)(C)O[C@H]32)c2ccccc2n1`, the EC50 was above 200 µM and the IC50 amounted to 64.6 µM. For `CCSc1nnc(-c2ccccc2)nc1Cc1ccc(OC)cc1` the same measures were above 14.8 µM and above 14.8 µM. Turning to `O=C(Nc1cccc([N+](=O)[O-])c1)c1n[nH]n(-c2cccc([N+](=O)[O-])c2)c1=O`, the EC50 is above 200 µM and the IC50 was above 200 µM.

In the case of `COc1ccc(N=Nc2c(N)nn3cc4c(nc23)-c2ccccc2C4)cc1`, the EC50 is above 200 µM. As for `CCCN(CCCC(NC(C)=O)C(=O)NCc1ccccc1)C(=O)N(C)N=O` (configuration not stated), the EC50 is above 174 µM and the IC50 was above 174 µM. For the compound `O=C(O)c1c(O)ccc(N=Nc2ccc(N=Nc3ccc4c(S(=O)(=O)O)cccc4c3O)c3ccccc23)c1O`, the EC50 was above 100 µM and the IC50 is above 100 µM. Regarding `CC1(CCC2C=CCC2)CCCNC1=S` (configuration not stated), the EC50 is 38 µM and the IC50 is 89.1 µM. Consider `O=C1CSC(c2ccccc2O)N1c1ccc(-c2ccc(-n3c(-c4ccccc4)nc4ccccc4c3=O)cc2)cc1` (configuration not stated), for which the EC50 is above 200 µM and the IC50 was found to be 12 µM.

Take `COc1ccc(-n2cnc3c(NC(CCSC)C(=O)O)ncnc32)cc1` (configuration not stated): the EC50 was 75.9 µM and the IC50 is above 200 µM.

On to `CCC1(CC)C(=O)NN(C(=O)c2ccccc2)C1=O`, for which the EC50 was above 200 µM and the IC50 is above 200 µM.

As for `CC(=O)OCC1OC(Nc2cc(=O)[nH]c(=O)[nH]2)C(OC(C)=O)C(OC(C)=O)C1OC(C)=O` (configuration not stated), the result was inactive.

On to `COc1cc(C(=O)O)c2c(c1C)OC(=O)c1c(C)cc(O)c(C=O)c1O2`, for which the EC50 is above 83.2 µM and the IC50 is 36.3 µM. Regarding `COc1c(O)ccc2oc3cccc(O)c3c(=O)c12`, the EC50 is above 200 µM and the IC50 was 110 µM.

Consider `Cc1nn(C(=O)c2ccccc2O)c2c1C(c1ccc(O)cc1)SC(N)=N2` (configuration not stated), for which the EC50 is above 2 µM and the IC50 was 0.129 µM.

`COc1cnn(-c2ccccc2)c(=O)c1SCc1ccc(Cl)c(Cl)c1`: the EC50 is above 34.7 µM and the IC50 was 27.5 µM. As for `COC1=CC(=O)C2C(C1=O)C(c1ccc(OC)c(OC)c1)[C@H]2C` (some centres not stated), the EC50 is above 12 µM and the IC50 is above 12 µM. On to `O=c1ccn([C@@H]2C[C@H](CO)CS(=O)C2)c(=O)[nH]1` (some centres not stated), for which the EC50 is above 977 µM and the IC50 is above 977 µM. For `NCCSC(C[N+](=O)[O-])c1ccccc1Cl` (configuration not stated), the EC50 is above 200 µM and the IC50 worked out at 2.19 µM.

With `C[S+](C)c1ccccc1NC(C)(C)C`, the EC50 was above 776 µM and the IC50 was 490 µM. For `CO/C(N)=C(\C#N)N=Cc1cccs1` the same measures were above 200 µM and 117 µM. `COc1cccc(/C=N/NC(=O)c2ccccc2[O-])c1[O-].[Cu+2].[OH3+]`: the EC50 is above 200 µM and the IC50 is above 200 µM. Regarding `CC(NC(=O)C(NC(=O)CNC(=O)OC(C)(C)C)C(C)C)C(=O)Oc1c(Cl)c(Cl)c(Cl)c(Cl)c1Cl` (configuration not stated), the EC50 was above 200 µM and the IC50 came out at 29.5 µM.

The EC50 is the concentration that produces a half-maximal response. In general, IC50 refers to the concentration at which inhibition is half-maximal. Low values mean greater potency in that assay, high ones weaker potency in that assay.
